Results on 1 molecule are retold here after PMC5218480 (PLoS ONE, 2017).

This experiment has as its system MV-4-11 cells. Kind of experiment: Gene expression microarray analysis (Affymetrix PrimeView) and GSEA. It is filed as cell-based, human. Further details: RFU PODN (11730768_x_at) / Fold change /veh PODN (11730768_x_at) / RFU LINC00158 (11744669_a_at) / Fold change /veh LINC00158 (11744669_a_at) / RFU DUSP10 (11751237_a_at) / Fold change /veh DUSP10 (11751237_a_at) / RFU ID3 (11757404_x_at) / Fold change /veh ID3 (11757404_x_at) / RFU PLEKHG5 (11737974_s_at) / Fold change /veh PLEKHG5 (11737974_s_at) / RFU LRRC4B (11730491_at) / Fold change /veh LRRC4B (11730491_at) / RFU GIMAP4 (11747438_a_at) / Fold change /veh GIMAP4 (11747438_a_at) / RFU KRT8 (11758183_x_at) / Fold change /veh KRT8 (11758183_x_at) / RFU CNN1 (11734310_a_at) / Fold change /veh CNN1 (11734310_a_at) / RFU VPS37D (11726825_at) / Fold change /veh VPS37D (11726825_at) / RFU C10orf10 (11716522_x_at) / Fold change /veh C10orf10 (11716522_x_at) / RFU KIR2DL2 /// KIR2DL4 /// KIR2DL5A /// KIR2DL5B /// KIR2DS1 /// KIR2DS2 /// KIR2DS3 /// KIR2DS4 /// KIR3DL3 /// KIR3DL3 /// KIR3DS1 (11738374_at) / Fold change /veh KIR2DL2 /// KIR2DL4 /// KIR2DL5A /// KIR2DL5B /// KIR2DS1 /// KIR2DS2 /// KIR2DS3 /// KIR2DS4 /// KIR3DL3 /// KIR3DL3 /// KIR3DS1 (11738374_at) / RFU C1QL1 (11718748_at) / Fold change /veh C1QL1 (11718748_at) / RFU TMPRSS4 (11747572_a_at) / Fold change /veh TMPRSS4 (11747572_a_at) / RFU HAMP (11756126_x_at) / Fold change /veh HAMP (11756126_x_at) / RFU RNFT2 (11725882_a_at) / Fold change /veh RNFT2 (11725882_a_at) / RFU NR4A2 (11747474_a_at) / Fold change /veh NR4A2 (11747474_a_at) / RFU ABCC12 (11746883_a_at) / Fold change /veh ABCC12 (11746883_a_at) / RFU TMEM136 (11760407_x_at) / Fold change /veh TMEM136 (11760407_x_at) / RFU CLDN22 /// WWC2 (11732394_at) / Fold change /veh CLDN22 /// WWC2 (11732394_at) / RFU HLA-DPB1 (11760878_x_at) / Fold change /veh HLA-DPB1 (11760878_x_at) / RFU SPINT1 (11716480_a_at) / Fold change /veh SPINT1 (11716480_a_at) / RFU GAP43 (11754022_s_at) / Fold change /veh GAP43 (11754022_s_at) / RFU A4GNT (11735810_at) / Fold change /veh A4GNT (11735810_at) / RFU PRB3 (11715151_x_at) / Fold change /veh PRB3 (11715151_x_at) / RFU TUBB4B (11761932_at) / Fold change /veh TUBB4B (11761932_at) / RFU CAPN14 (11732068_a_at) / Fold change /veh CAPN14 (11732068_a_at) / RFU TMCC2 (11721928_a_at) / Fold change /veh TMCC2 (11721928_a_at) / RFU IRGQ (11745062_a_at) / Fold change /veh IRGQ (11745062_a_at) / RFU FAM174B (11720279_a_at) / Fold change /veh FAM174B (11720279_a_at) / RFU TMPRSS4 (11748680_a_at) / Fold change /veh TMPRSS4 (11748680_a_at) / RFU FAM212B (11763350_a_at) / Fold change /veh FAM212B (11763350_a_at) / RFU PLEKHG5 (11743358_a_at) / Fold change /veh PLEKHG5 (11743358_a_at) / RFU ZSCAN30 (11745921_a_at) / Fold change /veh ZSCAN30 (11745921_a_at) / RFU CMKLR1 (11741424_a_at) / Fold change /veh CMKLR1 (11741424_a_at) / RFU LOC101060620 /// MAPK8IP1 (11723275_at) / Fold change /veh LOC101060620 /// MAPK8IP1 (11723275_at) / RFU SPTSSB (11747773_x_at) / Fold change /veh SPTSSB (11747773_x_at) / RFU PRSS12 (11739890_at) / Fold change /veh PRSS12 (11739890_at) / RFU BIN1 (11741810_x_at) / Fold change /veh BIN1 (11741810_x_at) / RFU WNT11 (11732464_a_at) / Fold change /veh WNT11 (11732464_a_at) / RFU C10orf10 (11716521_a_at) / Fold change /veh C10orf10 (11716521_a_at) / RFU C5orf56 (11738089_at) / Fold change /veh C5orf56 (11738089_at) / RFU CYB561 (11721691_x_at) / Fold change /veh CYB561 (11721691_x_at) / RFU ANKRD19P (11752326_a_at) / Fold change /veh ANKRD19P (11752326_a_at) / RFU OR2T12 /// OR2T33 /// OR2T8 (11738714_s_at) / Fold change /veh OR2T12 /// OR2T33 /// OR2T8 (11738714_s_at) / RFU VCAN (11748164_a_at) / Fold change /veh VCAN (11748164_a_at) / RFU JSRP1 (11732532_at) / Fold change /veh JSRP1 (11732532_at) / RFU KRTAP10-11 (11738290_x_at) / Fold change /veh KRTAP10-11 (11738290_x_at) / RFU MYO3A (11730013_a_at) / Fold change /veh MYO3A (11730013_a_at) / RFU EBF3 (11725865_a_at) / Fold change /veh EBF3 (11725865_a_at) / RFU CAMK2N1 (11719241_x_at) / Fold change /veh CAMK2N1 (11719241_x_at) / RFU C5orf56 (11738088_a_at) / Fold change /veh C5orf56 (11738088_a_at) / RFU OLFML3 (11715873_a_at) / Fold change /veh OLFML3 (11715873_a_at) / RFU LOC100653217 /// NTM (11731650_a_at) / Fold change /veh LOC100653217 /// NTM (11731650_a_at) / RFU MAPK11 (11762145_a_at) / Fold change /veh MAPK11 (11762145_a_at) / RFU FIZ1 (11724087_x_at) / Fold change /veh FIZ1 (11724087_x_at) / RFU OASL (11726364_x_at) / Fold change /veh OASL (11726364_x_at) / RFU SOX15 (11748057_x_at) / Fold change /veh SOX15 (11748057_x_at) / RFU CD79A (11719716_a_at) / Fold change /veh CD79A (11719716_a_at) / RFU HIST1H1D (11736915_at) / Fold change /veh HIST1H1D (11736915_at) / RFU CASKIN2 (11723855_a_at) / Fold change /veh CASKIN2 (11723855_a_at) / RFU LOC730098 (11760151_x_at) / Fold change /veh LOC730098 (11760151_x_at) / RFU OR4N2 (11742367_at) / Fold change /veh OR4N2 (11742367_at) / RFU PRRT2 (11749266_a_at) / Fold change /veh PRRT2 (11749266_a_at) / RFU SNX32 (11753110_a_at) / Fold change /veh SNX32 (11753110_a_at) / RFU CDHR5 (11726645_a_at) / Fold change /veh CDHR5 (11726645_a_at) / RFU RCAN1 (11760418_a_at) / Fold change /veh RCAN1 (11760418_a_at) / RFU FAM167A (11723789_a_at) / Fold change /veh FAM167A (11723789_a_at) / RFU FAM26E (11764081_at) / Fold change /veh FAM26E (11764081_at) / RFU ISYNA1 (11749810_s_at) / Fold change /veh ISYNA1 (11749810_s_at) / RFU ACY1 (11761880_at) / Fold change /veh ACY1 (11761880_at) / RFU 11764098_at / Fold change /veh 11764098_at / RFU SAMD14 (11745864_x_at) / Fold change /veh SAMD14 (11745864_x_at) / RFU NPB (11741838_a_at) / Fold change /veh NPB (11741838_a_at) / RFU TMPRSS6 (11731388_a_at) / Fold change /veh TMPRSS6 (11731388_a_at) / RFU KRTAP10-2 (11738614_at) / Fold change /veh KRTAP10-2 (11738614_at) / RFU ARHGAP8 /// PRR5-ARHGAP8 (11727945_x_at) / Fold change /veh ARHGAP8 /// PRR5-ARHGAP8 (11727945_x_at) / RFU KRTAP5-7 /// NADSYN1 (11734609_at) / Fold change /veh KRTAP5-7 /// NADSYN1 (11734609_at) / RFU RASL12 (11751679_a_at) / Fold change /veh RASL12 (11751679_a_at) / RFU CDKN2B (11736163_a_at) / Fold change /veh CDKN2B (11736163_a_at) / RFU PRF1 (11729649_at) / Fold change /veh PRF1 (11729649_at) / RFU, ZNF638 /// ZNF638-IT1 / Fold change vs veh, ZNF638 /// ZNF638-IT1 / RFU, PANK3 / Fold change vs veh, PANK3 / RFU, SH3YL1 / Fold change vs veh, SH3YL1 / RFU, ZEB2 / Fold change vs veh, ZEB2 / RFU, NRIP1 / Fold change vs veh, NRIP1 / RFU, PTTG1IP / Fold change vs veh, PTTG1IP / RFU, CAPN2 / Fold change vs veh, CAPN2 / RFU, MED14 / Fold change vs veh, MED14 / RFU, SNORA58 / Fold change vs veh, SNORA58 / RFU, C1orf63 / Fold change vs veh, C1orf63 / RFU, LRRFIP1 / Fold change vs veh, LRRFIP1 / RFU, NDUFAF7 / Fold change vs veh, NDUFAF7 / RFU, SLC12A2 / Fold change vs veh, SLC12A2 / RFU, IBTK / Fold change vs veh, IBTK / RFU, ESF1 / Fold change vs veh, ESF1 / Fold change vs veh, TMEM50B / RFU, TAOK1 / Fold change vs veh, TAOK1 / RFU, ACBD3 / Fold change vs veh, ACBD3 / RFU, TMA16 / Fold change vs veh, TMA16 / RFU, RWDD3 / Fold change vs veh, RWDD3 / RFU, BCAT1 / Fold change vs veh, BCAT1 / RFU, EDEM3 / Fold change vs veh, EDEM3 / RFU, TMEM33 / Fold change vs veh, TMEM33 / RFU, WDR75 / Fold change vs veh, WDR75 / RFU, AHCTF1 / Fold change vs veh, AHCTF1 / RFU, TFRC / Fold change vs veh, TFRC / RFU, ZDHHC17 / Fold change vs veh, ZDHHC17 / RFU, NOM1 / Fold change vs veh, NOM1 / RFU, ARL8B / Fold change vs veh, ARL8B / RFU, ZBTB11 / Fold change vs veh, ZBTB11 / RFU, TAMM41 / Fold change vs veh, TAMM41 / RFU, KIAA1704 /// LOC100996395 / Fold change vs veh, KIAA1704 /// LOC100996395 / RFU, ING1 / Fold change vs veh, ING1 / RFU, TRMT61B / Fold change vs veh, TRMT61B / RFU, FUBP3 / Fold change vs veh, FUBP3 / RFU, TP53 / Fold change vs veh, TP53 / RFU, TNKS2 / Fold change vs veh, TNKS2 / RFU, ZFP14 / Fold change vs veh, ZFP14 / RFU, ACTR2 / Fold change vs veh, ACTR2 / RFU, PPP3R1 / Fold change vs veh, PPP3R1 / RFU, PIK3R1 / Fold change vs veh, PIK3R1 / RFU, HNRNPA1 / Fold change vs veh, HNRNPA1 / RFU, RNF170 / Fold change vs veh, RNF170 / RFU, ZNF28 / Fold change vs veh, ZNF28 / RFU, RNGTT / Fold change vs veh, RNGTT / RFU, OGT / Fold change vs veh, OGT / RFU, BRD1 / Fold change vs veh, BRD1 / RFU, MARS / Fold change vs veh, MARS / RFU, ZNF655 / Fold change vs veh, ZNF655 / RFU, FAHD1 / Fold change vs veh, FAHD1 / RFU, BDP1 / Fold change vs veh, BDP1 / RFU, LRRCC1 / Fold change vs veh, LRRCC1 / RFU, ARID1A / Fold change vs veh, ARID1A / RFU, ZNF146 / Fold change vs veh, ZNF146 / RFU, ZNF330 / Fold change vs veh, ZNF330 / RFU, GPN3 / Fold change vs veh, GPN3 / RFU, C9orf123 / Fold change vs veh, C9orf123 / RFU, N4BP2L2 / Fold change vs veh, N4BP2L2 / RFU, ARFIP1 / Fold change vs veh, ARFIP1 / RFU, FAM179B / Fold change vs veh, FAM179B / RFU, BCL10 / Fold change vs veh, BCL10 / RFU, UHRF1BP1L / Fold change vs veh, UHRF1BP1L / RFU, BET1 / Fold change vs veh, BET1 / RFU, CNOT2 / Fold change vs veh, CNOT2 / RFU, ZNF268 / Fold change vs veh, ZNF268 / Fold change vs veh, ZNF507 / RFU, DGCR2 / Fold change vs veh, DGCR2 / RFU, WDSUB1 / Fold change vs veh, WDSUB1 / Fold change vs veh, HSP90B1 /// MIR3652 / RFU, ADSS / Fold change vs veh, ADSS / RFU, GK / Fold change vs veh, GK / RFU, ZNF148 / Fold change vs veh, ZNF148 / RFU, TAF9 / Fold change vs veh, TAF9 / RFU, SLC1A5 / Fold change vs veh, SLC1A5 / RFU, SLMO2 / Fold change vs veh, SLMO2 / RFU, ABCC4 / Fold change vs veh, ABCC4 / RFU, LOC101060439 /// RAP1B / Fold change vs veh, LOC101060439 /// RAP1B / RFU, RFX7 / Fold change vs veh, RFX7 / RFU, GTPBP10 / Fold change vs veh, GTPBP10 / RFU, CNEP1R1 / Fold change vs veh, CNEP1R1 / RFU, BIVM-ERCC5 /// ERCC5 / Fold change vs veh, BIVM-ERCC5 /// ERCC5 / RFU, ILF3 / Fold change vs veh, ILF3 / RFU 11762660_at / Fold change /veh 11762660_at / RFU VCAN (11757783_s_at) / Fold change /veh VCAN (11757783_s_at) / RFU DDX43 (11728927_at) / Fold change /veh DDX43 (11728927_at) / RFU KRT8 (11758188_x_at) / Fold change /veh KRT8 (11758188_x_at) / RFU NKD1 (11759106_at) / Fold change /veh NKD1 (11759106_at) / RFU SRD5A1 (11742802_a_at) / Fold change /veh SRD5A1 (11742802_a_at) / RFU TPSAB1 /// TPSB2 (11721975_s_at) / Fold change /veh TPSAB1 /// TPSB2 (11721975_s_at) / RFU GSTM3 (11746129_a_at) / Fold change /veh GSTM3 (11746129_a_at) / RFU IL23R (11737362_x_at) / Fold change /veh IL23R (11737362_x_at) / RFU TMEM51 (11727254_a_at) / Fold change /veh TMEM51 (11727254_a_at) / RFU PIWIL2 (11732686_x_at) / Fold change /veh PIWIL2 (11732686_x_at) / RFU ORM1 (11744905_x_at) / Fold change /veh ORM1 (11744905_x_at) / RFU CCDC152 (11743942_at) / Fold change /veh CCDC152 (11743942_at) / RFU ECM1 (11717891_a_at) / Fold change /veh ECM1 (11717891_a_at) / RFU IL23R (11748794_a_at) / Fold change /veh IL23R (11748794_a_at) / RFU TNFAIP8L3 (11732012_x_at) / Fold change /veh TNFAIP8L3 (11732012_x_at) / RFU MBOAT4 (11741988_at) / Fold change /veh MBOAT4 (11741988_at) / RFU 11764193_at / Fold change /veh 11764193_at / RFU TMEM53 (11763286_at) / Fold change /veh TMEM53 (11763286_at) / RFU MAGEB2 (11727129_at) / Fold change /veh MAGEB2 (11727129_at) / RFU TMEM200A (11744735_a_at) / Fold change /veh TMEM200A (11744735_a_at) / RFU CCDC152 (11751479_a_at) / Fold change /veh CCDC152 (11751479_a_at) / RFU FAM211A (11726209_a_at) / Fold change /veh FAM211A (11726209_a_at) / RFU RGS16 (11746705_a_at) / Fold change /veh RGS16 (11746705_a_at) / RFU VCAN (11755009_s_at) / Fold change /veh VCAN (11755009_s_at) / RFU RHOB (11743442_s_at) / Fold change /veh RHOB (11743442_s_at) / RFU RGS16 (11720943_a_at) / Fold change /veh RGS16 (11720943_a_at) / RFU RGS16 (11720944_at) / Fold change /veh RGS16 (11720944_at) / RFU, VPS4B / Fold change vs veh, VPS4B / RFU, CREB1 / Fold change vs veh, CREB1 / RFU, DNAJC13 / Fold change vs veh, DNAJC13 / RFU, GNAQ / Fold change vs veh, GNAQ / RFU, CDK5R1 / Fold change vs veh, CDK5R1 / RFU, ZRANB3 / Fold change vs veh, ZRANB3 / RFU, CUL4A / Fold change vs veh, CUL4A / RFU, CCNY / Fold change vs veh, CCNY / RFU, UFL1 / Fold change vs veh, UFL1 / RFU, COG3 / Fold change vs veh, COG3 / RFU, DIAPH2 / Fold change vs veh, DIAPH2 / RFU, SKA2 / Fold change vs veh, SKA2 / RFU, AFF3 / Fold change vs veh, AFF3 / RFU, LMF1 / Fold change vs veh, LMF1 / RFU, IPO11 / Fold change vs veh, IPO11 / RFU, DFFB / Fold change vs veh, DFFB / RFU, FOXP1 / Fold change vs veh, FOXP1 / RFU, CARD8 / Fold change vs veh, CARD8 / RFU, STRN3 / Fold change vs veh, STRN3 / RFU, ADK / Fold change vs veh, ADK / RFU, RASSF2 / Fold change vs veh, RASSF2 / RFU, WIPF1 / Fold change vs veh, WIPF1 / RFU, LARP1B / Fold change vs veh, LARP1B / RFU, RASA1 / Fold change vs veh, RASA1 / RFU, RB1 / Fold change vs veh, RB1 / RFU, PPFIA1 / Fold change vs veh, PPFIA1 / RFU, MAT2A / Fold change vs veh, MAT2A / RFU, CCT5 / Fold change vs veh, CCT5 / RFU, WDR92 / Fold change vs veh, WDR92 / RFU, CUX1 / Fold change vs veh, CUX1 / RFU, TTC7A / Fold change vs veh, TTC7A / RFU, TMEM135 / Fold change vs veh, TMEM135 / RFU, DEPTOR / Fold change vs veh, DEPTOR / RFU, CPM / Fold change vs veh, CPM / RFU, DNAJB6 / Fold change vs veh, DNAJB6 / RFU, CACNA2D3 / Fold change vs veh, CACNA2D3 / RFU, DTX4 / Fold change vs veh, DTX4 / RFU, TFCP2 / Fold change vs veh, TFCP2 / RFU, GMCL1 /// GMCL1P1 / Fold change vs veh, GMCL1 /// GMCL1P1 / RFU, AEBP2 / Fold change vs veh, AEBP2 / RFU, SNHG1 /// SNORD22 /// SNORD25 /// SNORD26 /// SNORD27 /// SNORD28 /// SNORD29 /// SNORD31 / Fold change vs veh, SNHG1 /// SNORD22 /// SNORD25 /// SNORD26 /// SNORD27 /// SNORD28 /// SNORD29 /// SNORD31 / Fold change (Aza/veh), C12orf56 (ProbeSet 11735607_a_at) / Fold change (ACY-1035/veh), C12orf56 (ProbeSet 11735607_a_at) / Fold change (Aza/veh), FGFR1OP (ProbeSet 11751329_s_at) / Fold change (ACY-1035/veh), FGFR1OP (ProbeSet 11751329_s_at) / Fold change (Aza/veh), VPS36 (ProbeSet 11739960_a_at) / Fold change (ACY-1035/veh), VPS36 (ProbeSet 11739960_a_at) / RFU SYPL1 (11715823_x_at) / Fold change /veh SYPL1 (11715823_x_at) / RFU IGFBP7 (11715501_s_at) / Fold change /veh IGFBP7 (11715501_s_at) / RFU REEP3 (11722064_at) / Fold change /veh REEP3 (11722064_at) / RFU IGLL1 (11728026_x_at) / Fold change /veh IGLL1 (11728026_x_at): dose or concentration left out as unconfirmed. The note with it: ProbeSet 11741199_a_at; LIST B.

With `Nc1ccc(-c2cccs2)cc1NC(=O)c1ccc2c(c1)cc(C1CC1)n2CCN1CCOCC1` [ACY-1035], the “RFU, LRRCC1” value was determined as 56.24 RFU.
